# Test results: PMC2346451 (PLoS ONE, 2008)
# pKd: −log10 of the molar value. Read-outs that look alike come from different tables or passages of the source.
# Columns and labels:
# rat TRPM8 (rTRPM8) = rat TRPM8 (rTRPM8) (Rattus norvegicus, UniProt Q8R455); experiment: Whole-cell patch clamp of rat TRPM8 expressed in HEK-293T cells; type: cell-based
# Method: Transformed human embryonic kidney-293 (HEK-293T) cells were grown in Dulbecco's modified Eagle's medium (DMEM)+F-12 supplemented with 10% fetal calf serum, and 1% penicillin/streptomycin in 5% CO2 at 37°C. Cells grown to 90% confluence in 35 mm Petri dishes were transiently transfected with plasmid DNA encoding a TRP channel construct (1 µg). Rat TRPV1 (rTRPV1) was cloned into an enhanced green fluorescent protein-containing vector (pTracer-CMV2; Invitrogen, Carlsbad, CA). Chicken TRPV1 (cTRPV1), the chicken rat TRPV1 chimera (crcTRPV1), rat TRPV2 (rTRPV2), mouse TRPV3 (mTRPV3), mouse TRPV4 (mTRPV4), rat TRPM8 (rTRPM8), and rat TRPA1 (rTRPA1), were cloned into pcDNA3 and co-transfected with enhanced green fluorescent protein (0.1 µg) to follow expression. The cTRPV1 and crcTRPV1 clones were kindly provided by Dr. David Julius. Recordings were carried out 24–36 hours after transfection. Cells were split via trypsin EDTA, plated on glass coverslips at 5–10% confluence, and used 2–3 hours later.
# (§1) Electrophysiological experiments were performed using the whole-cell patch-clamp technique at room temperature. Modified Ringer's solution with low chloride and nominal calcium contained (in mM): 130 sodium hydroxide, 5 potassium chloride, 1 magnesium chloride, 10 sodium 4-(2-hydroxyethyl)-1-piperazineethanesulfonic acid, 10 2-(N-morpholino)ethanesulfonic acid, and 20 glucose (pH 7.4; 310 milli-osmolar). […] 2 mM calcium chloride was included in the external solution where noted. To activate TRPV1, the modified Ringer's solution was made at pH 5 (low pH solution) and the chloride concentration was kept to a minimum to prevent contamination of the TRPV1 currents with acid-activated chloride currents. For recordings from heterologously expressing cells, the internal pipette solution contained (in mM): 125 cesium-Methanesulfonate, 10 cesium (1.2-bis(o-aminophenoxy)ethane-N,N,N',N'-tetraacetic acid, 8 sodium chloride, 4 magnesium adenosine triphosphate, and 10 HEPES (pH 7.2; 290 mOSM; nominal free calcium concentrations). For TRPA1 and dorsal root ganglion recordings, the internal pipette solution contained (in mM): 110 cesium-Methanesulfonate, 0.5 cesium4BAPTA, 8 sodium chloride, 0.2 calcium chloride, 4 magnesium-ATP, 4 sodium-GTP, and 10 4-(2-hydroxyethyl)-1-piperazineethanesulfonic acid (pH 7.2; 290 mOSM; 100 nM free calcium internal). MaxChelator was used to calculate the free calcium concentration (http://www.stanford.edu/cpatton/maxc.html).
# (§2) Recordings were obtained using an Axopatch 200B amplifier, Digidata 1322A analog-to-digital converter, and pClamp 8.01 software (Molecular Devices, Union City, CA). Data were low-pass filtered at 2 kHz and digitized at 5 kHz. Borosilicate glass pipettes (World Precision Instruments, Sarasota, FL) were typically 3 MΩ pipette resistance after fire polishing. Cell capacitance was measured for each cell, and access resistance compensated to ∼80%. Recordings were begun ∼5 minutes after initial rupture to ensure initial steady state conditions. Current-voltage (I-V) relations were obtained using a ramp protocol. Voltage ramps (400 ms) from −100 to +40 or +100 mV were applied every 1–2 seconds and the holding potential was either −70 mV or 0 mV (see Figure Legends). A 40 ms step was added at the beginning and end of the ramp (i.e. at −100 mV, +40 mV or +100 mV). Liquid junction potentials were not corrected.
# The dose response curves were fit with the Hill equation, where [drawing 8] and [A] is the concentration of agonist or blocker, N is the Hill coefficient, and KD is the [A] for Imeasured/Imax = 0.5. The term apparent dissociation constant is used in place of the half concentration of excitation and inhibition. […] Averaged data are presented as mean±standard error (S.E.) throughout. Statistical analysis included paired and unpaired Student's t-test comparisons of the data; p values are reported in the text.
# [1] = tested on: dorsal root ganglion neurons; experiment: Whole-cell patch clamp of acutely isolated dorsal root ganglion neurons; type: cell-based, rat
# Source text: Dorsal root ganglion neurons from all spinal levels were removed from postnatal day 12 to 20 Sprague Dawley rats and the nerve roots trimmed. Calcium- and magnesium-free (CMF) Hank's solution contained (in mM): 136.9 sodium chloride, 5.4 potassium chloride, 0.34 dibasic sodium orthophosphate, 0.44 monopotassium phosphate, 5.6 glucose, 5 4-(2-hydroxyethyl)-1-piperazineethanesulfonic acid, 0.005% phenol red, pH 7.4. CMF Hank's was used throughout the isolation and enzymatic treatments. The isolated ganglia were treated for 20 minutes at 37°C with 20 U/ml of papain (Worthington Biochemical, Lakewood, NJ) and 5 mM cysteine. The ganglia were then transferred to CMF Hank's with 3 mg/ml collagenase (type I; Worthington) and 4 mg/ml dispase (neutral type II; Roche Applied Science, Indianapolis, IN) for 20 minutes at 37°C. Individual neurons were dispersed by trituration through a fire-polished glass Pasteur pipette in 3 ml of media containing DMEM, 5% horse serum, 10% fetal bovine serum, 1% penicillin/streptomycin, and 100 ng/ml Nerve Growth Factor (7S subunit; Invitrogen). The neurons were preplated in tissue culture-treated Petri dishes for 1 hour when used for electrophysiology (3 hours for calcium imaging), and then plated on poly-L-lysine (1 mg/ml)-coated glass coverslips. Dorsal root ganglion neurons were allowed to settle for 1–2 hours at 37°C before patching or imaging over the next 6 hours.
# as §1, §2
# [2] = tested on: dorsal root ganglion neurons; experiment: Fura-2 calcium imaging of dorsal root ganglion neurons; type: cell-based, rat; conditions: 1 mM citral; freshly isolated neurons
# Source text: Dorsal root ganglion neurons from all spinal levels were removed from postnatal day 12 to 20 Sprague Dawley rats and the nerve roots trimmed. Calcium- and magnesium-free (CMF) Hank's solution contained (in mM): 136.9 sodium chloride, 5.4 potassium chloride, 0.34 dibasic sodium orthophosphate, 0.44 monopotassium phosphate, 5.6 glucose, 5 4-(2-hydroxyethyl)-1-piperazineethanesulfonic acid, 0.005% phenol red, pH 7.4. CMF Hank's was used throughout the isolation and enzymatic treatments. The isolated ganglia were treated for 20 minutes at 37°C with 20 U/ml of papain (Worthington Biochemical, Lakewood, NJ) and 5 mM cysteine. The ganglia were then transferred to CMF Hank's with 3 mg/ml collagenase (type I; Worthington) and 4 mg/ml dispase (neutral type II; Roche Applied Science, Indianapolis, IN) for 20 minutes at 37°C. […]
# Dorsal root ganglion neurons were loaded with 5 µM fura-2 AM and 0.02% pluronic acid in media at 37°C for 60 minutes. […] The MetaFluor imaging system (Universal Imaging Corporation) was used to record fluorescence at 340 and 380 nm excitation wavelengths. Background fluorescence, measured as the ratio 340/380 in a “cell-free” zone during the experiment, was subtracted from the data. […]
# [3] = target: T1, rat TRPV1 tyrosine to alanine point mutant at residue 511 (Rattus norvegicus, UniProt O35433, Y511A); experiment: Patch clamp of capsaicin-insensitive rat TRPV1 point mutant; type: cell-based; conditions: data not shown
# T1 construct: expressed in transfected cells; host or cells: HEK-293T (inferred from the general methods)
# T1 sequence (O35433 whole entry Y511A): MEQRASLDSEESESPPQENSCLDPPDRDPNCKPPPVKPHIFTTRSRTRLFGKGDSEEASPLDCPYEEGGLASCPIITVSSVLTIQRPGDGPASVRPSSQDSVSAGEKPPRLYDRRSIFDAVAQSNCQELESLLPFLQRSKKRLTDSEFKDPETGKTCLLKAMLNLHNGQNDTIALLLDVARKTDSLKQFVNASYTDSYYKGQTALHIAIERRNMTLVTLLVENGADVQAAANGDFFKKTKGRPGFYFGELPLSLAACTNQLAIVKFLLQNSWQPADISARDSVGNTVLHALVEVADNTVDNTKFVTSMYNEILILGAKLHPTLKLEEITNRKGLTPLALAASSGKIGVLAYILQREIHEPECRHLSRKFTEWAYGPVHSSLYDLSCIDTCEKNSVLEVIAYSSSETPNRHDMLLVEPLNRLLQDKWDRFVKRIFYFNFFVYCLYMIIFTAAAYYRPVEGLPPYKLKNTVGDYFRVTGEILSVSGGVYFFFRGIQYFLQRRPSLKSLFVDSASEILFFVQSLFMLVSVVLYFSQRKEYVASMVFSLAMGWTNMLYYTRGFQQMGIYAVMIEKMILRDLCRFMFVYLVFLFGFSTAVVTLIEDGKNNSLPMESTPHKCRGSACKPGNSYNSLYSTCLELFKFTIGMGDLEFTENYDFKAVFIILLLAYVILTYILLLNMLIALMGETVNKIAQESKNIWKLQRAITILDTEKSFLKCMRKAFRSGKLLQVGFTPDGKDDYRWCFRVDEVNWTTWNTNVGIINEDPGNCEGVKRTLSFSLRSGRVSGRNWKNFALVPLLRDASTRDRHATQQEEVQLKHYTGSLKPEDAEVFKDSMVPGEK
# rat TRPM8 (rTRPM8), sequence (Q8R455 whole entry): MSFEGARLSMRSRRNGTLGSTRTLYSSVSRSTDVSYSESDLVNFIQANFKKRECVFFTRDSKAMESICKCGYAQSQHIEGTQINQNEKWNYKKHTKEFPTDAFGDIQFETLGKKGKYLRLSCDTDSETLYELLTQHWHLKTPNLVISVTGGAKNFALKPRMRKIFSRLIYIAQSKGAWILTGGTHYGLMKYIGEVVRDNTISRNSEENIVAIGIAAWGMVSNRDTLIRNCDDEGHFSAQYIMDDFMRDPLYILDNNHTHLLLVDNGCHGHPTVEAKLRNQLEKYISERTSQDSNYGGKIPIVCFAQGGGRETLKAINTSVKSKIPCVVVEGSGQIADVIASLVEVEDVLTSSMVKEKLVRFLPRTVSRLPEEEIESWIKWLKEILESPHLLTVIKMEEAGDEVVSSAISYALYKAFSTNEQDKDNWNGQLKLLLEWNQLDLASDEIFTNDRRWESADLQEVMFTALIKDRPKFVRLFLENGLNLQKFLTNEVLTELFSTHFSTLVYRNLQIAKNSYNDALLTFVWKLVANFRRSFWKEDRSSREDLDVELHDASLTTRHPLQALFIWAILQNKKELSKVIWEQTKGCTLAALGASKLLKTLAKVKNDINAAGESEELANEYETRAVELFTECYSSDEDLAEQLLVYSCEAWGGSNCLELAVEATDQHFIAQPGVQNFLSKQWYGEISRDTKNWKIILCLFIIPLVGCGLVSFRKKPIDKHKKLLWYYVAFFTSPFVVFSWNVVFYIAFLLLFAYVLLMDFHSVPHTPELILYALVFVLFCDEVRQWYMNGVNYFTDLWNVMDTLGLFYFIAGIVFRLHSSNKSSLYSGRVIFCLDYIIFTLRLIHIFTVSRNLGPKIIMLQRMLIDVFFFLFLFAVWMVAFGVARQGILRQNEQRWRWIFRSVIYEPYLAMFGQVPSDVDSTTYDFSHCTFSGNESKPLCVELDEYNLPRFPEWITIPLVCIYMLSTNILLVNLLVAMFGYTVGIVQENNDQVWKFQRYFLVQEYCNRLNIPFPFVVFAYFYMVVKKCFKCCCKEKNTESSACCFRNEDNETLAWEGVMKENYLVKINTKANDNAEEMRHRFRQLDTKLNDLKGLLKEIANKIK
structure (smiles),measurement,setting,value
"CC(C)=CCCC(C)=CC=O [citral, 3,7-dimethyl-2,6-octadienal]",Hill coefficient (activation),rat TRPM8 (rTRPM8),1.6
same,Reversibility of citral inhibition of agonist-evoked current,rat TRPM8 (rTRPM8),essentially irreversible
same,Hill coefficient (inhibition),rat TRPM8 (rTRPM8); +40 mV,1.7
same,Increase in TRPM8 current evoked by menthol after citral washout,"rat TRPM8 (rTRPM8); after 60 seconds washout, n = 3",4±2%
same,pKd,"rat TRPM8 (rTRPM8); citral activation, nominal external calcium, read-out: Activation KD, app",4.47
same,pKd,"rat TRPM8 (rTRPM8); citral block of menthol (1 mM)-evoked current, +40 mV, read-out: Inhibition KD, app",3.73
same,pKd,"rat TRPM8 (rTRPM8); citral block of menthol (1 mM)-evoked current, −40 mV, read-out: Inhibition KD, app",3.62
same,Agonist efficacy Imenthol (30 µM)/Icitral (300 µM),"rat TRPM8 (rTRPM8); fold larger, −40 mV, n = 5",Imenthol (30 µM)/Icitral (300 µM) 74±28 fold larger (n = 5; −40 mV)
same,Effect of citral addition on agonist-induced current,"rat TRPM8 (rTRPM8); menthol-induced, n = 4",not increased
same,Time for >50% inhibition of peak TRP current in continued presence of citral,rat TRPM8 (rTRPM8); n = 7,≤ 14 s
same,Hill coefficient (inhibition),rat TRPM8 (rTRPM8); −40 mV,2.0
same,Increase of inward ITRPM8 above baseline,rat TRPM8 (rTRPM8); −40 mV,2 fold
same,Block of TRPV1-like currents evoked by capsaicin,[1]; 1 µM capsaicin,94%
same,Effect on fast inward current (primarily voltage-gated sodium channels),[1]; 1 mM citral,partially blocked
same,Increase of outward currents,"[1]; 1 mM citral, n = 8",2.7±0.5 fold
same,Capsaicin response recovered after citral washout,"[1]; 5 minutes after washout, n = 8",3±1.5%
same,Potentiation of TRPV1-like current prior to inhibition,"[1]; capsaicin activation, n = 17",1.1±0.03 fold
same,Initial (constitutive) outward current inhibited,[1]; citral at pH 5,79%
same,Block of TRPV1-like currents evoked by pH 5 solution,[1]; pH 5,100%
same,Potentiation of TRPV1-like current prior to inhibition,"[1]; pH 5 activation, n = 20",1.5±0.1 fold
same,Neurons with increased internal calcium concentration among capsaicin-responsive neurons,[2],12 of 35
same,Response of capsaicin-insensitive TRPV1 point mutant,[3],remained responsive to citral
